These results are taken from article PMC9901937, “Selective androgen receptor degrader (SARD) to overcome antiandrogen resistance in castration-resistant prostate cancer” (eLife, 2023).

This experiment deals with T1, androgen receptor (AR) (Homo sapiens, UniProt P10275).
T1 construct: AR from LNCaP cytosol (LBD site)
T1 sequence (P10275 1-920): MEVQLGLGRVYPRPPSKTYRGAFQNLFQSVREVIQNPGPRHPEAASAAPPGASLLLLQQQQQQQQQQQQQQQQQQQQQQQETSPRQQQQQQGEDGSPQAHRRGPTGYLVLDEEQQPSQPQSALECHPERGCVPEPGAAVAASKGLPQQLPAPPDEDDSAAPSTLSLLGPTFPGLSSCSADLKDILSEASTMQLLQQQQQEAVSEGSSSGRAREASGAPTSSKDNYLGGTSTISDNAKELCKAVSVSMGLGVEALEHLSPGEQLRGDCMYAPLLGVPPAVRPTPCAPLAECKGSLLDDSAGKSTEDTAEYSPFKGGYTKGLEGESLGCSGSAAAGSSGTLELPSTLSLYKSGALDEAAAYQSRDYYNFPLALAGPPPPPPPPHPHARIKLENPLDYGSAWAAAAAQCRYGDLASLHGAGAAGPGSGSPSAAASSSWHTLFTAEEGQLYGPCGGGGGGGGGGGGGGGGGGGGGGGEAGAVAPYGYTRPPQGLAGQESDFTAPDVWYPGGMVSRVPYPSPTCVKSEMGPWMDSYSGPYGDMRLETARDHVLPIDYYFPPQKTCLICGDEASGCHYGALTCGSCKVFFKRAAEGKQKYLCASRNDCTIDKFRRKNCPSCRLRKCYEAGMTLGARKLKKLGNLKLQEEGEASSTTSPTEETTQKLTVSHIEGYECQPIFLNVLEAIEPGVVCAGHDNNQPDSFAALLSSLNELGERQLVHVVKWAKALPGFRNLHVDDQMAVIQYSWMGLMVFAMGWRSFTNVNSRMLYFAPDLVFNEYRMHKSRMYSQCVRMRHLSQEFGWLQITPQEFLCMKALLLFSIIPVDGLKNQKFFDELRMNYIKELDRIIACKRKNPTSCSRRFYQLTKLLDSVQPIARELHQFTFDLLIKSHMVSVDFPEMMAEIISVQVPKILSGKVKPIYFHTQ
The experiment is described as follows: [3H]DHT competitive radioligand binding; also BLI and FP on AR LBD, and SPR (KD […]) and BLI on AR AF1 ([…] aa).

With `Cc1noc(C)c1COc1ccc(C(=O)Nc2nc(-c3cccs3)cs2)cc1` [Z15, 4-[(3,5-Dimethyl-4-isoxazolyl)methoxy]-N-4-[(2-thienyl)-2-thiazole]-benzamide], the IC50 turned out to be 63.3 nM.
